Measurements reported in patent US20250017914A1, “6-AZA-QUINOLINE DERIVATIVES AND RELATED USES” (Black Diamond Therapeutics, Inc., priority 2021, published 2025).

molecular target: T1, BaF3 BRAF-KIAA1549 fusion cells (Homo sapiens, UniProt P15056); assay: BaF3 BRAF-KIAA1549 fusion cell proliferation assay (CellTiterGlo, 96 hours); format: cell-based; details: Table A1
T1 construct: The BRAF-KIAA1549 fusion mutant was subcloned into pMXs-IRES-Blasticidin (RTV-016, Cell Biolabs, San Diego, CA); No tag given; Q9HCM3 (UPF0606 protein KIAA1549)
In short: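 BaF3 cells retrovirally transduced with BRAF-KIAA1549 fusion and blasticidin-selected were plated at 7×10^4 c/well in RPMI, 10% heat-inactivated FBS, 1% L-glutamine, and exposed to compound for 96 hours. Growth was read as ATP content by CellTiterGlo luminescence. IC50 was fitted by Levenberg-Marquardt, normalised to DMSO-treated cells.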

T1 sequence (P15056 whole entry, change not shown, the tested form may be a part): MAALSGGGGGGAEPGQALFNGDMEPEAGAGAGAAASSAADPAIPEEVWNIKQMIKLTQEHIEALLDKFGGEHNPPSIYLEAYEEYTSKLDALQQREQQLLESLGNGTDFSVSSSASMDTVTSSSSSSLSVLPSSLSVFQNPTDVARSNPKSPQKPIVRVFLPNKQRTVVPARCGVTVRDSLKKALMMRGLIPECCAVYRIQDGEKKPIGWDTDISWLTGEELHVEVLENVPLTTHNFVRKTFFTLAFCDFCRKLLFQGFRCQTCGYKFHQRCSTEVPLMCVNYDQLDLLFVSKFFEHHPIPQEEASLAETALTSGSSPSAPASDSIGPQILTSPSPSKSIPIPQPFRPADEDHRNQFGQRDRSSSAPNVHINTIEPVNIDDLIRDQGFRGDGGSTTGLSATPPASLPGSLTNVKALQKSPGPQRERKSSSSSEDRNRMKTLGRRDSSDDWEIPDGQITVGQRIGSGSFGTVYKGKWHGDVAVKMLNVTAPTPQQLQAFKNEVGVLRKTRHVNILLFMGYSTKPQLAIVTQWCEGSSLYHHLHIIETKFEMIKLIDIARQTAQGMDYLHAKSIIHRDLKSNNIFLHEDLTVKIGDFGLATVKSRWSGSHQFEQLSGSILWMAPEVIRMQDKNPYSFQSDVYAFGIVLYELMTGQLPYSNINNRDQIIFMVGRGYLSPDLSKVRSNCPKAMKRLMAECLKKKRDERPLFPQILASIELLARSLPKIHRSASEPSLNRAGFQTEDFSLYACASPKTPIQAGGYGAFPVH

| GI50 | SMILES |
| --- | --- |
| 100 to 500 nM | CNc1cc2ncc(-c3cc(NC(=O)c4ccnc(C(F)F)c4)cnc3C)cc2cn1 [Compound 28, 2-(Difluoromethyl)-N-(6-methyl-5-(7-(methylamino)-1,6-naphthyridin-3-yl)pyridin-3-yl)isonicotinamide] |
| 20 to 100 nM | CNc1cc2ncc(-c3cc(C(=O)Nc4cc(C(C)(C)C#N)ccn4)cnc3C)cc2cn1 [Compound 59, N-(4-(2-Cyanopropan-2-yl)pyridin-2-yl)-6-methyl-5-(7-(methylamino)-1,6-naphthyridin-3-yl)nicotinamide] |
| < 20 nM | CNc1cc2ncc(-c3cc(NC(=O)c4cccc(N(C)C)c4)cnc3C)cc2cn1 [Compound 19, 3-(Dimethylamino)-N-(6-methyl-5-(7-(methylamino)-1,6-naphthyridin-3-yl)pyridin-3-yl)benzamide] |
| < 20 nM | CNc1cc2ncc(-c3cc(NC(=O)c4ccnc(C(C)(F)F)c4)cnc3C)cc2cn1 [Compound 29, 2-(1,1-Difluoroethyl)-N-(6-methyl-5-(7-(methylamino)-1,6-naphthyridin-3-yl)pyridin-3-yl)isonicotinamide] |
| 20 to 100 nM | CNc1cc2ncc(-c3cc(NC(=O)c4cc(C(F)F)ccn4)cnc3C)cc2cn1 [Compound 22, 4-(Difluoromethyl)-N-(6-methyl-5-(7-(methylamino)-1,6-naphthyridin-3-yl)pyridin-3-yl)picolinamide] |

same assay, conditions: Table A2

| SMILES | GI50 |
| --- | --- |
| CNc1cc2ncc(-c3cc(NC(=O)c4cccc5c4NC(=O)C5(C)C)ccc3C)cc2cn1 [Compound 215, 3,3-dimethyl-N-(4-methyl-3-(7-(methylamino)-1,6-naphthyridin-3-yl)phenyl)-2-oxoindoline-7-carboxamide] | 20 to 100 nM |
| CNc1cc2ncc(-c3cc(NC(=O)c4cccc(C5(C#N)CC5)c4)cnc3C)cc2cn1 [Compound 191, 3-(1-cyanocyclopropyl)-N-(6-methyl-5-(7-(methylamino)-1,6-naphthyridin-3-yl)pyridin-3-yl)benzamide] | 20 to 100 nM |

Further lines, results first:

| GI50 | SMILES |
| --- | --- |
| 20 to 100 nM | CNc1cc2ncc(-c3cc(NC(=O)c4cnc5n4CC(C(F)(F)F)CC5)ccc3C)cc2cn1 (centres unmarked) [Compound 220, N-(4-methyl-3-(7-(methylamino)-1,6-naphthyridin-3-yl)phenyl)-6-(trifluoromethyl)-5,6,7,8-tetrahydroimidazo[1,2-a]pyridine-3-carboxamide] |
| 20 to 100 nM | CNc1cc2ncc(-c3cc(NC(=O)c4noc5c4CC(F)(F)CC5)cnc3C)cc2cn1 [Compound 247, 5,5-difluoro-N-(6-methyl-5-(7-(methylamino)-1,6-naphthyridin-3-yl)pyridin-3-yl)-4,5,6,7-tetrahydrobenzo[d]isoxazole-3-carboxamide] |
| 100 to 500 nM | CNc1cc2ncc(-c3cc(NC(=O)c4noc5c4CC(C(C)(C)C)CC5)cnc3C)cc2cn1 (centres unmarked) [Compound 241, 5-(tert-butyl)-N-(6-methyl-5-(7-(methylamino)-1,6-naphthyridin-3-yl)pyridin-3-yl)-4,5,6,7-tetrahydrobenzo[d]isoxazole-3-carboxamide] |
| < 20 nM | Cc1ccc(NC(=O)c2ccnc(C(C)(C)F)c2)cc1-c1ccc2c3c(ncc2c1)NC(=O)C3 [Compound 276, 2-(2-fluoropropan-2-yl)-N-(4-methyl-3-(2-oxo-2,3-dihydro-1H-pyrrolo[2,3-c]isoquinolin-7-yl)phenyl)isonicotinamide] |
